This note sets out measurements from patent US10022382B2, “RNA polymerase I inhibitors and uses thereof” (Tel HaShomer Medical Research Infrastructure and Services …, priority 2013, dated 2018).

Broadly, the IC50 is the concentration needed to halve the response being measured. As usually defined, the LD50 is the dose at which mortality reaches 50%. Read a low LD50 as a more toxic substance.

Series [1] concerns Mouse splenocytes. Kind of series: XTT cell viability assay, PHA-stimulated splenocytes. It is filed as cell-based. To be noted: 72 hours. As to the method:
Cell viability was assessed by the 2,3 bis [2-Methoxy-4-nitro-5-sulfophenyl]-2H-tetrazolium-5-carboxanilide (XTT) assay (Biological Industries, Kibbutz Beit Hemeek, Israel), which measures the reduction of a tetrazolium component (XTT) into soluble formazan product by the mitochondria of viable cells. The intensity of the dye obtained is proportional to the number of metabolic active cells. On the day of measurement, cells were washed and XTT was added according to the manufacturer's instructions. Plates were incubated at 37° C. for 2-5 hours. The absorbance was read at 450 nm.
Mouse splenocytes were removed and spleenocytes were plated (250,000 cell/well) in DMEM+10% FCS+P/S+Q and […] Phytohaemaglutinin (PHA), in the presence of elevated concentrations (25-400 nM) of RAM-0 (Compound 1), RAM-1 (Compound 4), RAM-2 (Compound 2) or RAM-3 (Compound 3) for 72 hours. Cells cultured without PHA served as control. Control mice at zero are mice splenocytes with PHA stimulation.
Following incubation, cell viability was determined by XTT assay, as described above.
Background: Tetrazolium dyes change colour on reduction, which living cells bring about.

Series [2] concerns pre-rRNA. Kind of series: Q-RT-PCR of pre-rRNA in PHA-stimulated splenocytes of naive mice. It is filed as cell-based. As to conditions: 72 hours, 25 to 400 nM. As to the method:
RNA samples from similar cultures were also prepared and tested by Q-RT-PCR for pre-rRNA expression levels as described in Example herein below.
RNA Extraction: For in vivo experiments spleens from EAE mice were isolated at day 17 post immunization and splenocytes were re-stimulated for 72 h hours in the presence of 5.0 μg/ml MOG35-55. For in-vitro experiments spleens from intact mice were isolated and splenocytes were stimulated with for 72 h in the presence of PHA. RNA was extracted from splenocytes of both the in-vitro and in-vivo experiments by robotic ABI PRISM, Applied biosystem 6100 Nucleic Acid Prep Station. To avoid genomic DNA contamination samples were treated with DNase I (Roche). The quality and integrity of the total RNA preparation was confirmed using a NanoDrop 2000c Spectrophotometer (Thermo Scientific).
Quantitative RT-PCR of Pre-rRNA: Complementary DNA was obtained from the extracted RNA by the High capacity cDNA reverse transcription kit (Applied Biosystems, CA, USA) following manufacturer's instructions. To confirm the role of POL1 pathway suppression by POL1-Inhibitors, the expression level of pre-rRNA transcript, a key gene of the RNA polymerase I pathway, was evaluated by Q-RT-PCR (n=3 per group). […] (SEQ ID NO: 70) with a quantification probe (Roche, Probe ID #1, cat. no. 04684974001). […]

Series [3] in a line: Toxicity (LD50, survival) in the EAE model, continuous administration. It is filed as in vivo. As to conditions: C57BL/6J, mouse, in vivo, oral; EAE prevention model, continuous administration. As to the method:
(§1) The animals were evaluated for signs of acute toxicity and survival during the entire administration period in the EAE model.
(§2) The therapeutic index (LD50/ED50), which is also referred to herein as Safety Margin (SM), was then determined based on the EAE model.

In series [4] the test system is C57BL/6J mice. The description is as above. The class given is in vivo. As to the method: as §1, §2
Series [5] can be described thus: Bioavailability: serum level after oral gavage or IV. The class given is in vivo, mice. To be noted: for time to maximal concentration: healthy C57B6J female mice. The procedure: Bioavailability: Determination of the level of the tested compound in serum was done following oral gavage. Blood samples (0.5 mL) were collected and immediately centrifuged at 5,000 rpm for 10 minutes. The serum was separated and stored at −20° C. until fluoprometric analysis by Tecan SpectraFluor, based on the specific excitation/emission values of the tested compound was conducted. The pharmacokinetic parameters including serum maximum concentration (Cmax), the time needed to reach Cmax (Tmax), and half-life (T1/2), were calculated to evaluate oral bioavailability. The serum concentration after oral gavages was calculated according to a calibration curve for each compound in the serum. The Pharmacokinetic properties of compound 10 were quantified by the LCMS method described below. The concentration of Compound 10 was calculated with a calibration curve. The serum was prepared for analysis using protein precipitation. 15 μL of water were added to 15 μL of serum and a H2O: MeOH: CHCl3 (90:120:30) solution was added. The supernatant was subjected to LCMS analysis equipped with a PHENOMENEX® C-18 RP column.

Series [6] has as its system Pol II. Kind of series: Cell-free polymerase II transcription from CMV promoter. It is filed as biochemical, human. As to conditions: 200 nM. The procedure:
Transcription by polymerase II from CMV promoter was tested similarly using the template provided HeLa scribe kit of Promega, further processing as described above and analysis of transcript with template specific primers: POL II forward primer: ctatgcgcacccgttctc (SEQ ID NO: 73), Pol II reverse primer: gtagcgaagcgagcagga (SEQ ID NO: 74). Probe ID: #70, cat. no. 04688937001 (Roche), was used for both reactions.

Series [7] in a line: Solubility in mQ water. It is filed as physicochemical. As to conditions: 50 mg in 0.5 mL mQ water, room temperature. As to the method:
The solubility of Compounds 1 and 10 was determined by dissolving 50 mg of the tested compound in 0.5 mL of mQ water, at room temperature.

Where [8] appears, read: EAE mice, 30 mg/kg every alternate day until disease onset.

Regarding `Cc1cnc(CNC(=O)c2/c(=N/c3ccccc3)c3ccc(N4CCCN(C)CC4)nc3n3c2sc2ccccc23)cn1` [Compound 10, (E)-2-(4-methyl-1,4-diazepan-1-yl)-N-((5-methylpyrazin-2-yl)methyl)-5-(phenylimino)-5H-benzo[4,5]thiazolo[3,2-a][1,8]naphthyridine-6-carboxamide], the “suppression of splenocyte proliferation compared to Compound 1 (XTT)” value in series [1] is “improved performance”. Also, the IC50 in series [1] (Splenocyte, mouse splenocytes, 25-400 nM) stood at 40 nM. Further, in series [2], the “pre-rRNA mRNA levels expressed by splenocytes” value is reported as “significant dose dependent decrease”. The LD50 in series [3] worked out at 30 mg/kg. The survival in series [4] (C57BL/6J, mouse, in vivo, 28 days) is 100%. Further, in series [4] (setting [8]), the behavioral changes result is given as “No behavioral changes”, the survival result was “No effect on survival” and the tolerability result was “well tolerated”. The signs of toxicity entry in series [4] (all treated groups, EAE model, alternate days) is given as “without apparent signs of toxicity”. Besides, in series [5] (12.5 mg/kg, up to 168 h), the “bioavailability AUC(oral)/AUC(IV)” value amounted to 72%. In addition, the “time to maximal concentration” value in series [5] (IV, 12.5 mg/kg) is on record as 0.5 h. In series [5] (mice serum, oral gavage), the “Cmax compared to Compound 1” value is reported as “higher”, the “Tmax compared to Compound 1” value was “lower” and the “clearance compared to Compound 1” value is listed as “faster”. Further, the absorption entry in series [5] (oral and IV, 12.5 mg/kg) is “rapidly absorbed”. In addition, the “time to maximal concentration” value in series [5] (oral, 12.5 mg/kg) came out at 2 h. Besides, the “effect on Pol II transcription from the CMV promoter” value in series [6] was found to be 5%. Also, the solubility entry in series [7] is reported as “immediately dissolved in the aqueous solution”.
